Biological target: HIF-2α transcriptional activity
Experiment: Hypoxia-responsive element-driven luciferase (HRE-Luc) assay
Assay type: cell-based, human
Conditions: 786-0 CCRCC cells stably expressing HRE-Luc, 24 hours treatment
Experimental: Screens for inhibitory activity of compounds described herein were performed using 786-0 CCRCC cells that stably express HRE-Luc: 5 copies of the hypoxia-responsive element (HRE) fused to the pGL3 luciferase reporter (Promega Corp, Madison Wis.). 786-0 cells are pVHL deficient and thus constitutively express HIF-2α independently of cellular oxygen tension (Maxwell, Wiesener et al. 1999). Since 786-0 cells lack HIF-1α, HRE-driven luciferase activity is primarily HIF-2α driven, and has been previously validated (Koh, Lemos et al. 2011). Cells were maintained at log phase growth in Dulbecco's […] (DMEM) with 10% FBS in a humidified incubator at 37° C. with 5% CO2. For screening assays, cells were seeded at a density of 4,000 cells in 50 μl of complete media/well in quadruplicate wells/point in a 96-well plate. 24 hours later, 50 μl of a 2× concentration of test compound was added to each well. Compounds were diluted from a 5-10 mM stock in DMSO and final concentrations of DMSO in each well in controls and treated wells were kept constant at ≤0.6% DMSO. After 24 hours' treatment, luciferase activity was measured using the Steady-Glo Luciferase assay system (Promega Corp) according to the manufacturer's protocol. Cell viability was measured in quadruplicate parallel wells using resazurin as recommended by the manufacturer (R&D systems, Minneapolis, Minn.). Data for luciferase and resazurin were normalized to DMSO treated controls (defining 100%) and wells containing assay reagent but no cells (defining 0%), and graphed using the log inhibitor versus normalized response option in Prism7 Graphpad software. Representative data determined using Steady-Glo luciferase and resazurin are shown in FIGS. 1A and 1B respectively, with error bars showing standard error of the mean (SEM).

| IC50 | Structure (SMILES) |
| --- | --- |
| 28.3 µM | COc1ccc(-c2nnc(Nc3nc4c(Cl)nccc4[nH]3)o2)cc1 [KD022, N-(4-chloro-1H-imidazo[4,5-c]75yridine-2-yl)-5-(4-methoxyphenyl)-1,3,4-oxadiazol-2-amine] |

Same assay, conditions: Homo sapiens; 786-0 CCRCC cells stably expressing HRE-Luc, 24 hours treatment

| Structure (SMILES) | IC50 |
| --- | --- |
| COc1ccc2[nH]c(Nc3nnc(-c4ccc(F)cc4)o3)nc2n1 [KD003, 5-(4-Fluorophenyl)-N-(5-methoxy-1H-imidazo[4,5-b]pyridin-2-yl)-1,3,4-oxadiazol-2-amine] | 8.16 µM |
| Fc1ccc(-c2nnc(Nc3nc4cnc(Cl)cc4[nH]3)o2)cc1 [KD004, N-(6-Chloro-1H-imidazo[4,5-c]pyridin-2-yl)-5-(4-fluorophenyl)-1,3,4-oxadiazol-2-amine] | 40.3 µM |
| Fc1ccc(-c2nnc(Nc3nc4cnc(C(F)(F)F)cc4[nH]3)o2)cc1 [KD005HCL, 5-(4-Fluorophenyl)-N-(6-(trifluoromethyl)-1H-imidazo[4,5-c]pyridin-2-yl)-1,3,4-oxadiazol-2-amine] | 16.1 µM |
| Cc1cncc2nc(Nc3nnc(-c4ccc(F)cc4)o3)[nH]c12 [KD006TFA, 5-(4-Fluorophenyl)-N-(7-methyl-1H-imidazo[4,5-c]pyridin-2-yl)-1,3,4-oxadiazol-2-amine] | 23.8 µM |
| COc1ccc2nc(Nc3nnc(-c4ccc(F)cc4)o3)sc2n1 [KD008, 5-(4-Fluorophenyl)-N-(5-methoxythiazolo[5,4-b]pyridin-2-yl)-1,3,4-oxadiazol-2-amine] | 52.3 µM |
| Fc1ccc(-c2nnc(Nc3nc4cnc(N5CCOCC5)cc4[nH]3)o2)cc1 [KD009, 5-(4-Fluorophenyl)-N-(6-morpholino-1H-imidazo[4,5-c]pyridin-2-yl)-1,3,4-oxadiazol-2-amine] | 15.4 µM |
| CN1CCN(c2cc3[nH]c(Nc4nnc(-c5ccc(F)cc5)o4)nc3cn2)CC1 [KD010, 5-(4-Fluorophenyl)-N-(6-(4-methylpiperazin-1-yl)-1H-imidazo[4,5-c]pyridin-2-yl)-1,3,4-oxadiazol-2-amine] | > 100 µM |
| Fc1ccc(-c2nnc(Nc3nc4cnc(Cl)nc4[nH]3)o2)cc1 [KD013, N-(2-Chloro-9H-purin-8-yl)-5-(4-fluorophenyl)-1,3,4-oxadiazol-2-amine] | 37.6 µM |
| CS(=O)(=O)C1CCN(c2cc3[nH]c(Nc4nnc(-c5ccc(F)cc5)o4)nc3cn2)CC1 [KD015, 5-(4-Fluorophenyl)-N-(6-(4-(methylsulfonyl)piperidin-1-yl)-1H-imidazo[4,5-c]pyridin-2-yl)-1,3,4-oxadiazol-2-amine] | > 100 µM |
| Fc1ccc(-c2nnc(Nc3nc4ccnc(N5CCOCC5)c4[nH]3)o2)cc1 [KD016, 5-(4-Fluorophenyl)-N-(4-morpholino-3H-imidazo[4,5-c]pyridin-2-yl)-1,3,4-oxadiazol-2-amine] | 10.2 µM |
| Fc1ccc(-c2nnc(Nc3nc4cncc(N5CCOCC5)c4[nH]3)o2)cc1 [KD017, 5-(4-Fluorophenyl)-N-(7-morpholino-1H-imidazo[4,5-c]pyridin-2-yl)-1,3,4-oxadiazol-2-amine] | 16.3 µM |
| COc1cccc(-c2nccc3nc(Nc4nnc(-c5ccc(F)cc5)o4)[nH]c23)c1 [KD018, 5-(4-Fluorophenyl)-N-(4-(3-methoxyphenyl)-3H-imidazo[4,5-c]pyridin-2-yl)-1,3,4-oxadiazol-2-amine] | 72.7 µM |
| COc1nccc2[nH]c(Nc3nnc(-c4ccc(C(F)(F)F)cc4)o3)nc12 [KD019, N-(4-methoxy-1H-imidazo[4,5-c]pyridin-2-yl)-5-(4-(trifluoromethyl)phenyl)-1,3,4-oxadiazol-2-amine] | 32.6 µM |
| COc1nccc2[nH]c(Nc3nnc(-c4ccc(OC(F)(F)F)cc4)o3)nc12 [KD020, N-(4-methoxy-1H-imidazo[4,5-c]pyridin-2-yl)-5-(4-(trifluoromethoxy)phenyl)-1,3,4-oxadiazol-2-amine] | 16.5 µM |

Now from value to molecule:

| IC50 | Structure (SMILES) |
| --- | --- |
| 2.72 µM | COc1nccc2[nH]c(Nc3nnc(-c4ccc5c(c4)OCO5)o3)nc12 [KD026, N-(4-Methoxy-1H-imidazo[4,5-c]pyridin-2-yl)-5-(benzo[d][1,3]dioxol-5-yl)-1,3,4-oxadiazol-2-amine] |
| 2.83 µM | COc1nccc2[nH]c(Nc3nnc(-c4ccc(N(C)C)cc4)o3)nc12 [KD027, N-(4-Methoxy-1H-imidazo[4,5-c]pyridin-2-yl)-5-(4-(dimethylamino)phenyl)-1,3,4-oxadiazol-2-amine] |
| 9.12 µM | COc1nccc2[nH]c(Nc3nnc(-c4ccc(C)cc4)o3)nc12 [KD028, N-(4-methoxy-1H-imidazo[4,5-c]pyridin-2-yl)-5-(p-tolyl)-1,3,4-oxadiazol-2-amine] |
| 6.1 µM | COc1ccc(-c2nnc(Nc3nc4ncccc4o3)o2)cc1 [KD029, N-(5-(4-Methoxyphenyl)-1,3,4-oxadiazol-2-yl)oxazolo[4,5-b]pyridin-2-amine] |
| 19.9 µM | Fc1ccc(-c2nnc(Nc3nc4ccnc(-c5ccc6c(c5)OCO6)c4[nH]3)o2)cc1 [KD030, N-(4-(Benzo[d][1,3]dioxol-5-yl)-3H-imidazo[4,5-c]pyridin-2-yl)-5-(4-fluorophenyl)-1,3,4-oxadiazol-2-amine] |
| 3.7 µM | COc1nccc2[nH]c(Nc3nnc(-c4ccc(C#N)cc4)o3)nc12 [KD031, 4-(5-((4-Methoxy-1H-imidazo[4,5-c]pyridin-2-yl)amino)-1,3,4-oxadiazol-2-yl) benzonitrile] |
| 1.94 µM | COc1ccc(-c2nnc(Nc3nc4c(OC)nccc4[nH]3)o2)cc1F [KD032, 5-(3-Fluoro-4-methoxyphenyl)-N-(4-methoxy-1H-imidazo[4,5-c]pyridin-2-yl)-1,3,4-oxadiazol-2-amine] |
| 7.6 µM | COc1ccc(-c2nnc(Nc3nc4c(OC)nccc4[nH]3)o2)cn1 [KD038, N-(4-Methoxy-1H-imidazo[4,5-c]pyridin-2-yl)-5-(6-methoxypyridin-3-yl)-1,3,4-oxadiazol-2-amine] |
| 6.86 µM | COc1nccc2[nH]c(Nc3nnc(-c4ccc(OC5CC5)cc4)o3)nc12 [KD040, 5-(4-Cyclopropoxyphenyl)-N-(4-methoxy-1H-imidazo[4,5-c]pyridin-2-yl)-1,3,4-oxadiazol-2-amine] |
| 22.6 µM | COc1nccc2[nH]c(Nc3nnc(-c4ccc(OC(C)C)cc4)o3)nc12 [KD041, 5-(4-Isopropoxyphenyl)-N-(4-methoxy-1H-imidazo[4,5-c]pyridin-2-yl)-1,3,4-oxadiazol-2-amine] |
| > 100 µM | COc1nccc2[nH]c(Nc3nnc(-c4ccc(C(C)(C)C)cc4)o3)nc12 [KD042, 5-(4-(tert-Butyl)phenyl)-N-(4-methoxy-1H-imidazo[4,5-c]pyridin-2-yl)-1,3,4-oxadiazol-2-amine] |
